Values belong to the compound of their own block, whether it stands above or below them.
Tested on: 186277-243-T-J2-PDC complex spheroid growth, % test/control
Assay: Anticancer human tumor 186277-243-T-J2-PDC patient-derived colon adenocarcinoma cell line growth inhibition [Asc]
Details: for IC50: curve of first compound; for viability, T/C: stronger effect = lower value
In short: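 Tumor cells were grown as complex spheroids with human endothelial cells (HUVEC) and human mesenchymal stem cells as stroma. Agents were tested alone and in combination, in half-log steps down from the clinical Cmax, or from 10 microM where Cmax was unknown.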
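Note: spheroids exposed to agents for 7 days.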
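Throughout, for viability, T/C: 100% = DMSO vehicle control wells.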

IC50 (second compound 0.03 µM): > 3 µM | IC50 (second compound 0.0949 µM): > 3 µM | IC50 (second compound 0.3 µM): 0.289 µM | IC50 (second compound 0.949 µM): < 0.00949 µM | IC50 (second compound 3 µM): < 0.00949 µM
SMILES: Cc1nc(N2CCC3(CC2)COC(C)C3N)c(CO)nc1Sc1ccnc(N)c1Cl (stereo not given) + CCN1C(C(=O)NC23CCC(C(=O)O)(CC2)CC3)C(c2cccc(Cl)c2F)C2(C(=O)Nc3cc(Cl)ccc32)C12CCCCC2
viability, T/C (second compound 0.03 µM, first compound 0.00949 µM): 122% | viability, T/C (second compound 0.03 µM, first compound 0.03 µM): 127% | viability, T/C (second compound 0.03 µM, first compound 0.0949 µM): 105% | viability, T/C (second compound 0.03 µM, first compound 0.3 µM): 113% | viability, T/C (second compound 0.03 µM, first compound 0.949 µM): 90.9% | viability, T/C (second compound 0.03 µM, first compound 3 µM): 90.7% | viability, T/C (second compound 0.0949 µM, first compound 0.00949 µM): 95.1% | viability, T/C (second compound 0.0949 µM, first compound 0.03 µM): 89.2% | viability, T/C (second compound 0.0949 µM, first compound 0.0949 µM): 84.5% | viability, T/C (second compound 0.0949 µM, first compound 0.3 µM): 84.5% | viability, T/C (second compound 0.0949 µM, first compound 0.949 µM): 71.9% | viability, T/C (second compound 0.0949 µM, first compound 3 µM): 57.8% | viability, T/C (second compound 0.3 µM, first compound 0.00949 µM): 63.2% | viability, T/C (second compound 0.3 µM, first compound 0.03 µM): 67.2% | viability, T/C (second compound 0.3 µM, first compound 0.0949 µM): 57.3% | viability, T/C (second compound 0.3 µM, first compound 0.3 µM): 48.6% | viability, T/C (second compound 0.3 µM, first compound 0.949 µM): 39.6% | viability, T/C (second compound 0.3 µM, first compound 3 µM): 28.3% | viability, T/C (second compound 0.949 µM, first compound 0.00949 µM): 45.9% | viability, T/C (second compound 0.949 µM, first compound 0.03 µM): 43.6% | viability, T/C (second compound 0.949 µM, first compound 0.0949 µM): 40.8% | viability, T/C (second compound 0.949 µM, first compound 0.3 µM): 33.1% | viability, T/C (second compound 0.949 µM, first compound 0.949 µM): 26.1% | viability, T/C (second compound 0.949 µM, first compound 3 µM): 19.1% | viability, T/C (second compound 3 µM, first compound 0.00949 µM): 26.8% | viability, T/C (second compound 3 µM, first compound 0.03 µM): 27.6% | viability, T/C (second compound 3 µM, first compound 0.0949 µM): 22.1% | viability, T/C (second compound 3 µM, first compound 0.3 µM): 19.4% | viability, T/C (second compound 3 µM, first compound 0.949 µM): 11.4% | viability, T/C (second compound 3 µM, first compound 3 µM): 9.13%

IC50 (second compound 0.01 µM): > 10 µM | IC50 (second compound 0.0316 µM): > 10 µM | IC50 (second compound 0.1 µM): > 10 µM | IC50 (second compound 0.316 µM): > 10 µM | IC50 (second compound 1 µM): > 10 µM
SMILES: O=C(c1cc(Cc2n[nH]c(=O)c3ccccc23)ccc1F)N1CCN(C(=O)C2CC2)CC1 + CNC(C)C(=O)NC1CN(S(=O)(=O)c2cccc(S(=O)(=O)N3CCC4CCC(C(=O)NC(c5ccccc5)c5ccccc5)N4C(=O)C(NC(=O)C(C)NC)C3)c2)CCC2CCC(C(=O)NC(c3ccccc3)c3ccccc3)N2C1=O
viability, T/C (second compound 0.01 µM, first compound 0.0316 µM): 95.4% | viability, T/C (second compound 0.01 µM, first compound 0.1 µM): 116% | viability, T/C (second compound 0.01 µM, first compound 0.316 µM): 111% | viability, T/C (second compound 0.01 µM, first compound 1 µM): 120% | viability, T/C (second compound 0.01 µM, first compound 3.16 µM): 121% | viability, T/C (second compound 0.01 µM, first compound 10 µM): 147% | viability, T/C (second compound 0.0316 µM, first compound 0.0316 µM): 114% | viability, T/C (second compound 0.0316 µM, first compound 0.1 µM): 102% | viability, T/C (second compound 0.0316 µM, first compound 0.316 µM): 99.1% | viability, T/C (second compound 0.0316 µM, first compound 1 µM): 114% | viability, T/C (second compound 0.0316 µM, first compound 3.16 µM): 123% | viability, T/C (second compound 0.0316 µM, first compound 10 µM): 156% | viability, T/C (second compound 0.1 µM, first compound 0.0316 µM): 111% | viability, T/C (second compound 0.1 µM, first compound 0.1 µM): 112% | viability, T/C (second compound 0.1 µM, first compound 0.316 µM): 114% | viability, T/C (second compound 0.1 µM, first compound 1 µM): 123% | viability, T/C (second compound 0.1 µM, first compound 3.16 µM): 129% | viability, T/C (second compound 0.1 µM, first compound 10 µM): 149% | viability, T/C (second compound 0.316 µM, first compound 0.0316 µM): 98.2% | viability, T/C (second compound 0.316 µM, first compound 0.1 µM): 104% | viability, T/C (second compound 0.316 µM, first compound 0.316 µM): 104% | viability, T/C (second compound 0.316 µM, first compound 1 µM): 117% | viability, T/C (second compound 0.316 µM, first compound 3.16 µM): 142% | viability, T/C (second compound 0.316 µM, first compound 10 µM): 148% | viability, T/C (second compound 1 µM, first compound 0.0316 µM): 99.3% | viability, T/C (second compound 1 µM, first compound 0.1 µM): 111% | viability, T/C (second compound 1 µM, first compound 0.316 µM): 106% | viability, T/C (second compound 1 µM, first compound 1 µM): 114% | viability, T/C (second compound 1 µM, first compound 3.16 µM): 125% | viability, T/C (second compound 1 µM, first compound 10 µM): 159%

Source: PubChem BioAssay AID1963426 (Molecular Pharmacology Branch, DTP, NCI, 2024)
